According to patent publication USRE47193E1, “Selectively substituted quinoline compounds” (EISAI R&D MANAGEMENT CO., LTD., priority 2013, dated 2019):
pIC50: −log10 of the molar value. “And” between values parts separate entries of the source, which are not always exact repeats. Equal values may be shown once.

Target: T1, human TLR8 (Homo sapiens, UniProt Q9NR97)
T1 construct: host or cells: HEK-293, then stably transfected with pNiFty2(NF-kappaB)-luciferase reporter
T1 sequence (Q9NR97 27-1041): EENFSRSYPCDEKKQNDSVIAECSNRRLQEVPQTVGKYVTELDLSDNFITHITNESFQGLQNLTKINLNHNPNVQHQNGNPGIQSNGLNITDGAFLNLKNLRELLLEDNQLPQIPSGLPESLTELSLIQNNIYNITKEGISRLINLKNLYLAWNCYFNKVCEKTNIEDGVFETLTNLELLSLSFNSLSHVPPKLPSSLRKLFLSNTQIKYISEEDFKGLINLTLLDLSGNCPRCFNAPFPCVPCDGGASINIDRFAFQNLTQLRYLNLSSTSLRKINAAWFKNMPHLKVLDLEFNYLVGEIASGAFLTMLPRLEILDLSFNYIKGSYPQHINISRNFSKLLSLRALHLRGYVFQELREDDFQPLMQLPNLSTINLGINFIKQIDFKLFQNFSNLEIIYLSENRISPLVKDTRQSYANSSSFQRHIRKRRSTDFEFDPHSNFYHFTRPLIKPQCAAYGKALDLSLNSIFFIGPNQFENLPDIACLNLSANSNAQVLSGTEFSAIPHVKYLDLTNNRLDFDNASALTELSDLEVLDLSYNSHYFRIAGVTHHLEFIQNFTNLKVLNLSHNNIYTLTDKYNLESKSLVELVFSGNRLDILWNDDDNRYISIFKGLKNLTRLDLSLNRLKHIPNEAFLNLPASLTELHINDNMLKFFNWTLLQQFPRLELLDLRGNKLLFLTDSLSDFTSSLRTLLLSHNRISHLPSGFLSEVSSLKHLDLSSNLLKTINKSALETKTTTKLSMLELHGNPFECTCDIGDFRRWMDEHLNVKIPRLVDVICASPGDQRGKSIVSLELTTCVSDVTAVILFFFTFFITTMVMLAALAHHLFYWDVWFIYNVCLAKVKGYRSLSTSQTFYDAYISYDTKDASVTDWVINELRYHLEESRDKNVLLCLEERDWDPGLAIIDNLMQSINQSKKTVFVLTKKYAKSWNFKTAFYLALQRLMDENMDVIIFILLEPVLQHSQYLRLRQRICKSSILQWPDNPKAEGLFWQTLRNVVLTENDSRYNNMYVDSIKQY
Assay: HEK-293 human TLR8 NF-kappaB luciferase reporter assay (CL097)
Assay type: cell-based
Conditions: HEK-293 assay format; read-out: HEK/hTLR8 IC50
Description: Effects on mouse TLR7 were also compared. Cells were stimulated overnight with TLR7/8 agonist CL097 at pre-determined ED70-80: 3 ug/ml for HEK-hTLR7, 1.5 ug/ml for HEK-mTLR7 and 12 ug/ml for HEK-hTLR8, before reading luminescence intensity. Three tests were performed and IC50 value was determined using Graphpad Prism 6 nonlinear regression curve fit.
HEK-293 cells (ATCC) were engineered to stably express a NF-kappaB transcription factor inducible E-selectin (ELAM-1) luciferase reporter derived from the plasmid pGL3 (Promega) containing base pairs −2241 bp to −254 bp from the promoter of the human E-selectin gene (Accession No. NM_000450). These cells were then subsequently engineered to stably and individually express human TLR4, TLR7 or TLR9 full-length ORF cDNAs. Human TLR4 cDNA (Accession No. NM_138554) was cloned into pcDNA 3.0 expression vector (Invitrogen). TLR4 transfected cells were also engineered to express human MD-2 co-receptor [MD-2 cDNA (Accession No. NM_015364) was cloned into the pEF-BOS vector] and were supplemented with 10 nM soluble CD14 (R&D Systems) in the media to optimize LPS responsiveness. Human TLR9 cDNA (Accession No. NM_017442) was cloned into the pBluescript II KS vector (Agilent). Human TLR7 cDNA (Accession No. NM_016562) was obtained from OriGene. HEK-293 cells stably expressing human TLR8 (Accession No. NM_138636) or mouse TLR7 (Accession No. NM_133211) were purchased from InvivoGen and were then stably transfected with pNiFty2(NF-kappaB)-luciferase reporter plasmid (InvivoGen). Each cell type was plated in Dulbecco's modified Eagle's medium (DMEM) containing 10% fetal bovine serum (FBS) at a density of 2.22×10^5 cells/ml into a 384-well plate and incubated for 2 days at 37° C., 5% CO2. Varying concentrations of antagonist compounds were then added. Cells were then incubated for another 30 minutes before adding the appropriate TLR agonist as follows (final concentrations indicated): lipopolysaccharide (LPS; Sigma) at 10 ng/ml for TLR4, CL097 (InvivoGen) at 3 ug/ml for human TLR7 and TLR8 and mouse TLR7, and CvG-2006-2A [sequence: […] (SEQ ID NO: 1) with phosphorothioate backbone, synthesized by Sigma-Aldrich] at 0.6 uM for TLR9.

SMILES | pIC50
C[C@@H]1CN(c2ccc(C#N)c3ncccc23)C[C@H](CN2CCNCC2)O1 [ER-887253] | 8.70
CC1CNC(=O)CN1C[C@H]1CN(c2ccc(C#N)c3ncccc23)C[C@@H](C)O1 (stereo partly drawn) [ER-887722] | 7.68
C[C@@H]1CN(c2ccc(C#N)c3ncccc23)C[C@H](CNC2CCCC2)O1 [ER-887145] | 6.98
CC1CN(c2ccc(C#N)c3ncccc23)CC(CN2CCCC2CO)O1 (stereo not drawn) [ER-886814] | 7.22
C[C@@H]1CN(c2ccc(C#N)c3ncccc23)C[C@H](CN2CCC(O)CC2)O1 [ER-886953] | 7.18
C[C@@H]1CN(C[C@H]2CN(c3ccc(C#N)c4ncccc34)C[C@@H](C)O2)CCN1 [ER-887269] | 8.49
C[C@@H]1CN(c2ccc(C#N)c3ncccc23)C[C@H](CN2CCC(N3CCCCC3)CC2)O1 [ER-887927, 5-((2S,6R)-2-([1,4′-bipiperidin]-1′-ylmethyl)-6-methylmorpholino)quinoline-8-carbonitrile] | 9.30
C[C@@H]1CN(c2ccc(C#N)c3ncccc23)C[C@H](CO)O1 [ER-885493, 5-((2R,6R)-2-(hydroxymethyl)-6-methylmorpholino)quinoline-8-carbonitrile] | 7.00
C[C@@H]1CN(c2ccc(C#N)c3ncccc23)C[C@H](CN2CC[C@H](O)C2)O1 [ER-886820] | 7.11
C[C@@H]1CN(c2ccc(C#N)c3ncccc23)C[C@H](CN2CCN(C)CC2)O1 [ER-887723] | 8.05
CC1CN(c2ccc(C#N)c3ncccc23)CC(CN2CCC(N(C)C)CC2)O1 (stereo not drawn) [ER-887725] | 9.00
C[C@@H]1CN(c2ccc(C#N)c3ncccc23)C[C@H](C)O1 [ER-878952] | 8.22 and 7.71
CC[C@H]1CN(C[C@H]2CN(c3ccc(C#N)c4ncccc34)C[C@@H](C)O2)CCN1 [ER-890963] | 8.55
CCCN1CCN(C[C@H]2CN(c3ccc(C#N)c4ncccc34)C[C@@H](C)O2)CC1 [ER-887724] | 8.22

Same assay, conditions: HEK-hTLR8; CL097 12 ug/ml; average of three tests; read-out: IC50 average

SMILES | pIC50
CCN(CCO)CCCC(C)Nc1ccnc2cc(Cl)ccc12 (stereo not drawn) [HCQ, hydroxychloroquine, reference compound] | < 5.00

Same assay, conditions: HEK-hTLR8; CL097 12 ug/ml; individual tests 1-3; read-out: IC50

SMILES | pIC50
CCN(CCO)CCCC(C)Nc1ccnc2cc(Cl)ccc12 (stereo not drawn) [HCQ, hydroxychloroquine, reference compound] | < 5.00

Same assay, conditions: IC50, HEK-hTLR8; CL097 12 ug/ml; individual tests 1-3

SMILES | pIC50
C[C@@H]1CN(c2ccc(C#N)c3ncccc23)C[C@H](C(=O)N[C@H]2CNC[C@H]2F)O1.Cl [ER-899742, (2R,6R)-4-(8-cyanoquinolin-5-yl)-N-[(3S,4R)-4-fluoropyrrolidin-3-yl]-6-methylmorpholine-2-carboxamide hydrochloride] | 8.70 and 8.60 and 8.59

Same assay, conditions: IC50 average, HEK-hTLR8; CL097 12 ug/ml; average of three tests

SMILES | pIC50
C[C@@H]1CN(c2ccc(C#N)c3ncccc23)C[C@H](C(=O)N[C@H]2CNC[C@H]2F)O1.Cl [ER-899742, (2R,6R)-4-(8-cyanoquinolin-5-yl)-N-[(3S,4R)-4-fluoropyrrolidin-3-yl]-6-methylmorpholine-2-carboxamide hydrochloride] | 8.62
